The term IC50 denotes the concentration at which inhibition is half-maximal.

Experimental findings from patent publication US11572373B2, “Maytansinoid-based drug delivery systems” (LADRX CORPORATION, priority 2017, dated 2023) are described below.

Data set [1] can be described thus: Stability of maytansinoids and maytansinoid-HSA conjugates in CD1 mouse plasma. The class given is in vitro ADME. As to conditions: 37° C., 30 μM. As to the method: (§1) For studying the stability of the maytansinoids as wells as the maytansinoid-HSA conjugates in CD1 and human plasma the compounds were incubated at 37° C. for 24 hours. Remaining free maytansinoid or release of the respective maytansinoid was quantified by LC-MS/MS (or HPLC) at certain time points.
(§2) Pooled CD1 mouse or human plasma (K2EDTA, Innovative research) was centrifuged (1 min at 12,044 g). The supernatant was first filtered through a filter needle (5 μm, sterile, Becton Dickinson) and subsequently through a cellulose acetate membrane (0.45 μm, sterile, Carl Roth). The filtered plasma (1710 μL) was preincubated at 37° C. for 30 min in a heating block. The free maytansinoid or albumin-binding maytansinoid as a 300 μM stock solution in DMSO (190 μL) was added to the preincubated plasma sample to produce a 30 μM solution of the respective maytansinoid or maytansinoid-HSA conjugate. The mixture was allowed to react for 10 min at 37° C. and then at each time point (0, 1, 2, 3, 4, 5, 21, and 24 hours) three samples (70 μL) were taken into a 96-well plate, sealed with a plastic mat, immediately frozen with liquid nitrogen and stored at −20° C. At the end of the experiment, the 96-well plate was thawed at room temperature. The samples (30 μL) were then directly transferred via a multichannel pipette into a 96-well Impact™ protein precipitation plate (Strata®) which was once washed with MeCN (150 μL) and then loaded with the internal standard (120 μL, MeCN containing 5 μg/mL maytansine). The Impact™ precipitation plate was sealed with a silicone mat and shaken for 2 min 420 rpm. The Impact™ precipitation plate was then placed onto a 96-well sample manifold and the filtrate was collected into another 96-well plate by applying mild vacuum. The 96-well plate was sealed with a silicone mat and kept at room temperature until LC-MS/MS quantification. The filtrate was injected into the LC-MS for quantification using the MRM mode. […]

A short description of data set [2]: In vitro cytotoxicity in different cell lines using the CellTiter-Blue Cell Viability Assay. The class given is cell-based, human. The conditions noted are these: Homo sapiens; geometric mean over the n cell lines tested, 96 h treatment, CellTiter-Blue; read-out: Geomean IC50. On the technique in general: The colour change of resazurin is a common sign of viable cells or microbes.

Data set [3] can be described thus: Stability of maytansinoids and maytansinoid-HSA conjugates in human plasma. Format: in vitro ADME. As to conditions: 37° C., 30 μM. As to the method: as §1, §2
For data set [4], the system named is human tumor xenograft models. The data set can be described thus: Antitumor activity in human tumor xenograft mice models. As to conditions: five human tumor xenograft models in nude mice, i.v. on day 1, 8, 15, and 22. Format: in vivo. From the text:
This included starting tumor volumes in the range of approximately 80-110 mm^3 but also initial starting tumor volumes of up to approximately 400 mm^3. Furthermore, in most cases therapy with albumin-binding maytansinoids 30 and 31 induced long-term remissions and a decrease in Relative Tumor Volume (RTV). […] Experimental procedure and the results in the tumor-bearing mice models are described in detail in Examples 11-19 and FIGS. 3-16.
Female immunodeficient NMRI nude mice, from Charles River, received unilateral tumor implants subcutaneously in the left flank while under isoflurane anesthesia with human cancer tumors until tumors were palpable and had reached a volume of 80-200 mm^3 (unless otherwise stated).
Animals were kept in cages, the temperature inside the cages maintained at 25±1° C. with a relative humidity of 45-65% and an air change rate in the cage of 60-fold per hour. They were kept under a 14 h light: 10 h dark, artificial light cycle. The animals were fed with autoclaved Teklad Global 19% Protein Extruded Diet (T.2019S.12) from Envigo RMS SARL and had access to sterile filtered and acidified (pH 2.5) tap water, which was changed twice weekly. Feed and water were provided ad libitum. […] Animals were routinely monitored twice daily on working days and daily on Saturdays and Sundays. […] Relative body weights (RBW) of individual animals were calculated by dividing the individual absolute body weight on day X (BWx) by the individual body weight on the day of randomization multiplied by 100%. The tumor volume was determined by a two-dimensional measurement with calipers on the day of randomization (day 0) and then twice weekly. Tumor volumes were calculated according to the following equation: Tumor Vol [mm^3]=1 [mm]×w^2 [mm^2]×0.5, where “1” is the length and “w” is width of the tumor. The relative volume of an individual tumor on day X (RTVx) was calculated by dividing the absolute individual tumor volume [mm^3] of the respective tumor on day X (Tx) by the absolute individual tumor volume of the same tumor on the day of randomization multiplied by 100%. […]

Data set [5] in a line: Stability and release kinetics of maytansinoid-HSA conjugates in buffer solution at pH 4.0 and pH 7.4. Format: physicochemical. As to conditions: maytansinoid-HSA conjugate, PBS pH 7.4, 37° C., measured at 100 μM. The method, then:
For preparing HSA conjugates of albumin-binding maytansinoids, HSA (200 μM: 361.8 μL, 1078 μM free Cys34; 100 μM: 180.9 μL, 1078 μM free Cys34) was diluted with PBS buffer (4 mM sodium phosphate, 150 mM NaCl, pH 7.4) (200 μM: 678.2 μL; 100 μM: 859.1 μL) and DMSO (200 μM: 130.0 μL; 100 μM: 195.0 μL) and incubated in a heating block at 37° C. for 30 minutes. The albumin-binding maytansinoid was added as a 2 mM stock solution in DMSO (200 μM: 130.0 μL; 100 μM: 65.0 μL) to the preincubated HSA sample to produce a 200 μM or 100 μM solution of maytansinoid-prodrug and 300 μM or 150 μM of free Cys34. The mixture having a pH of 7.4 was allowed to react for 10 min at 37° C. and was then analyzed hourly for 24 hours by RP-HPLC (Phenomenex Aeris WP XB-C18, 3.6 μm, 250×4.6 mm).
For studying the release kinetics at pH 4.0 the mixture was acidified with a mixture of 50 mM sodium acetate buffer pH 3.0 (200 μM: 119.3 μL; 100 μM: 125.2 μL) and 1 M HCl (200 μM: 12.7 μL; 100 μM: 6.8 μL) to reach pH 4.0. The mixture was subsequently analyzed hourly for 24 hours by RP-HPLC (Phenomenex Aeris WP XB-C18, 3.6 μm, 250×4.6 mm).
The following RP-HPLC conditions were used: Phenomenex Aeris WP XB-C18 3.6 μm, 250×4.6 mm; eluent A (100% 20 mM Tris buffer pH 8.0) and eluent B (90:10, MeCN: water) eluting with a gradient of eluent B (25% 0-0.5 min, 25-35% 0.5-2.5 min, 35-85% 2.5-16 min, 85-95% 16-17 min, 95% 17-20 min, 95-25% 20-25 min, 25% 25-30 min, flow rate 1.0 mL/min). Column oven temperature 37° C.; autosampler temperature 37° C.; 20 μL of injection volume.
To quantify the percentage of free drug released, standard curves of the free maytansinoids were prepared at different concentrations (200 μM, 100 μM, 50 μM, 25 μM and 12.5 μM). The area under the curve (AUC) was determined at 250 nm.

Data set [6] deals with T1, albumin (Homo sapiens, UniProt P02768).
T1 construct: tissue Zen-Bio; host or cells: pooled human whole blood (K2EDTA, 36 donors) and plasma prepared from it
Nature of the data set: in vitro. The conditions noted are these: 37° C., 12.0 μM, read-out: % bound (converted). The class given is in vitro ADME. The method, then: To study the binding kinetics of the albumin-binding maytansinoids in pooled human plasma and pooled human whole blood, the compounds were incubated together with pooled human plasma at 37° C. and samples were taken at specified time points. Remaining albumin-binding maytansinoids were quantitated by HPLC.
To study the binding kinetics in human whole blood, the blood (K2EDTA, 36 donors, Zen-Bio; 900 μL) was preincubated at 37° C. for 30 min in a heating block. To study the binding kinetics in pooled human plasma, the pooled whole blood was centrifuged (10 min, 1811 g), the supernatant plasma was collected and then preincubated at 37° C. for 30 min.
The albumin-binding maytansinoid was added to the preincubated whole blood/plasma sample as a 10-fold dilution in PBS of a 1.2 mM stock solution in 2.5% propylene glycol in 10 mM sodium phosphate buffer and 1.48 mM citrate (100 μL) to produce a 12.0 μM solution of the respective albumin-binding maytansinoid. Samples (190 μL) were taken after 15 s, 2 min, 4 min, 8 min and 15 min. The samples were directly added to 760 μL MeCN containing maytansine (5 μg/mL) as an internal standard and vortexed for 1 min. After centrifugation (1 min at 12,044 g) the supernatant (850 μL) was concentrated under high vacuum. The residue was taken up in DMSO/water (1:1 v/v; 95 μL) and then analyzed by RP-HPLC. Percentage of binding was determined by comparison of the area under the curve (AUC) at 220 nm of the albumin-binding maytansinoid relative to a control sample (100% value) in PBS buffer. All experiments were performed in triplicates.
HPLC method: Phenomenex Kinetex Polar C18, 2.6 μm, 100 Å, 150×4.6 mm; eluent A (95:5 5 mM ammonium acetate: MeCN) and eluent B (5:95 5 mM ammonium acetate: MeCN) eluting with a gradient of eluent B (30% 0-0.5 min, 30-95% 0.5-9.0 min, 95% 11.0 min, 95-30% 11.0-14.5 min, 30% 15.0 min, flow rate=1.0 mL/min). Column oven temperature ambient temperature; autosampler temperature 4° C.; 50 μL of injection volume.

The structures appear in SMILES notation. Like-named read-outs stand apart in the source and are kept apart here. Marks after values point to notes of the source that are not given here.

T1 sequence (P02768 25-609): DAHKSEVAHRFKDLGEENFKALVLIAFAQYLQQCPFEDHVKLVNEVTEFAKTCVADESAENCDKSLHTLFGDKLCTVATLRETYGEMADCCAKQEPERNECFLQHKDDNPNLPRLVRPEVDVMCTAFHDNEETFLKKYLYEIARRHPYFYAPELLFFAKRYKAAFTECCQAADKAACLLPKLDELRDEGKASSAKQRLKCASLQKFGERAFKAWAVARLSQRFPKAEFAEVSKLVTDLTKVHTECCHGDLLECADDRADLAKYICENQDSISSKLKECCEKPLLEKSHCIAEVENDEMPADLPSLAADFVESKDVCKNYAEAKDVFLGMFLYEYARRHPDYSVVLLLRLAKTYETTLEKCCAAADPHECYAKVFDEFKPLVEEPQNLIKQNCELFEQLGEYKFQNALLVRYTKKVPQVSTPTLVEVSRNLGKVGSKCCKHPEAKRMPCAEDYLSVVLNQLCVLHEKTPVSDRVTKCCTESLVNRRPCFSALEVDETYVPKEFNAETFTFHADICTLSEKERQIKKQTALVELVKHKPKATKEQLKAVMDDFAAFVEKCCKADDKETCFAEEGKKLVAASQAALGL

Regarding `COc1cc2cc(c1Cl)N(C)C(=O)C[C@H](OC(=O)Cc1ccc(C(C)=O)cc1F)[C@]1(C)O[C@H]1[C@H](C)[C@@H]1C[C@@](O)(NC(=O)O1)[C@H](OC)/C=C/C=C(\C)C2` [Compound 2], the “% of free maytansinoid remaining after 24 h” value in data set [1] was determined as 71.8%; in data set [3] it was 74.8%. Besides, the IC50 in data set [2] is 300 pM.

Take `COc1cc2cc(c1Cl)N(C)C(=O)C[C@H](OC(=O)COc1cccc(C(C)=O)c1)[C@]1(C)O[C@H]1[C@H](C)[C@@H]1C[C@@](O)(NC(=O)O1)[C@H](OC)/C=C/C=C(\C)C2` [Compound 3]: the “% of free maytansinoid remaining after 24 h” value in data set [1] is recorded as 40.8%; in data set [3] it was 69.6%. Moreover, in data set [2], the IC50 amounted to 100 pM.

`COc1cc2cc(c1Cl)N(C)C(=O)C[C@H](OC(=O)Cc1ccc(/C(C)=N/NC(=O)c3ccc(NC(=O)CCCCCN4C(=O)C=CC4=O)cc3S(=O)(=O)O)cc1F)[C@]1(C)O[C@H]1[C@H](C)[C@@H]1C[C@@](O)(NC(=O)O1)[C@H](OC)/C=C/C=C(\C)C2` [Compound 30]: in data set [4], the antitumor activity result was “partial and complete tumor regressions”. Moreover, the “free maytansinoid after 24 h at pH 7.4” value in data set [5] came to 9.6%**. In addition, the fraction unbound was 0.017 in data set [6] (blood, pooled human whole blood, 15 s); 0.015 in data set [6] (blood, pooled human whole blood, 8 min); 0.036 in data set [6] (plasma, pooled human plasma, 15 s); 0.015 in data set [6] (plasma, pooled human plasma, 8 min).
